Read-outs that look alike come from different tables or passages of the source.
Tests used:
[1] = system: α-smooth muscle actin (αSMA) positive LL29 cells; test: Inhibition of fibrotic process: αSMA in TGF-β1 treated primary human fibroblasts from IPF patients; type: cell-based; settings: Homo sapiens, Fibroblast; for EC50: 96 h, Table 8, LL29 fibroblasts from IPF patients, TGF-β1 20 ng/mL, 4 days, dose-response 10 μM to 0.94 nM; for inhibition at 10 µM: read-out: percent value in parentheses beside EC50 >10 μM;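 for all read-outs here: controls were TGF-β1 stimulated wells with DMSO vehicle (positive) and cells given DMSO alone (negative), cultured in F12 medium with 1% fetal bovine serum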
[2] = system: Tau phosphorylation at Ser396 (pSer396); test: Tau phosphorylation assay (pSer396 ELISA / western blot) in SH-SY5Y cells; type: cell-based, human; settings: Homo sapiens, read-out: pSer396 Tau EC50;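 note: EC50 for reduction of Tau pSer396 in lysed cells, measured by colorimetric ELISA or chemiluminescent western blot, both using the same pSer396 antibody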
[3] = target: recombinant DYRK1A kinase (Homo sapiens (Human), UniProt Q13627); test: DYRK1A kinase assay (Ser/Thr 18 peptide Z-lyte FRET); type: biochemical; settings: 30 μM ATP, 1 h room temperature;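 note: Read-out is the coumarin to fluorescein emission ratio, referenced to unphosphorylated (0%) and phosphorylated (100%) Ser/Thr 18 peptide controls, values from dose-response curves by non-linear regression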
[4] = system: SW480 colon carcinoma cells; test: Cell viability assay (CellTiter-Glo); type: cell-based, human; settings: Homo sapiens; for EC50: 96 h, SW480 cells, CellTiter-Glo, four days incubation; for inhibition at 10 µM: SW480, read-out: percent inhibition at 10 μM
IL-6 = IL-6 inhibition in LPS-stimulated human peripheral blood mononuclear cells (HTRF); type: cell-based; settings: Homo sapiens, PBMC; for EC50: Table 9, huPBMCs, LPS 50 ng/mL, 22 hours, dose-response starting from 10 μM; for inhibition at 10 µM: read-out: percent value in parentheses beside EC50 >10 μM;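 for all read-outs here: IL-6 detected by HTRF with an XL665- and Cryptate-labelled anti-IL-6 antibody pair, samples run in duplicate, EC50 obtained from a four-parameter Levenberg-Marquardt curve fit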
Description: After 22 hour incubation, a mixture of anti-IL6 XL665 and anti-IL-6 Cryptate diluted in reconstitution buffer (Catalog #62IL6PEC, Cisbio Inc., Bedford, Mass.) was added to each well. […] All samples were processed in duplicate. […] EC50 was determined using software generated by Dotmatics Limited (Windhill Bishops Stortford Herts, UK) using the Levenberg-Marquardt 4 parameter fitting procedure with finite different gradients.

[5] = system: Wnt pathway (Sp5-Luc reporter, TCF/LEF binding sites) in SW480 colon carcinoma cells; test: Screening assay for Wnt activity: Sp5-Luc reporter gene assay; type: cell-based, human; settings: Homo sapiens; Sp5-Luc reporter, SW480 cells, 36 to 48 hours;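 note: firefly luciferase luminescence read in stably transduced SW480 cells carrying the Sp5 promoter reporter with eight TCF/LEF sites, compounds given in 0.1% DMSO final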
Description: The screening assay for Wnt activity is described as follows.
Following incubation, 15 μl of BriteLite Plus luminescence reagent (Perkin Elmer) was added to each well of the 384-well assay plates. The plates were placed on an orbital shaker for 2 min and then luminescence was quantified using the Envision (Perkin Elmer) plate reader.

recombinant GSK3β kinase = recombinant GSK3β kinase (Homo sapiens (Human), UniProt P49841); test: GSK3β kinase assay (Ser/Thr 09 peptide Z-lyte FRET); type: biochemical; settings: 46 μM ATP, 1 h room temperature;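 note: kinase activity read as coumarin to fluorescein emission ratio, 11-point threefold dilutions from 10 µM to 0.0003 µM in duplicate, unphosphorylated and phosphorylated peptide as 0% and 100% controls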
[6] = SH-SY5Y cells, overnight (16-18 h) exposure

Sequence of recombinant GSK3β kinase (P49841 whole entry): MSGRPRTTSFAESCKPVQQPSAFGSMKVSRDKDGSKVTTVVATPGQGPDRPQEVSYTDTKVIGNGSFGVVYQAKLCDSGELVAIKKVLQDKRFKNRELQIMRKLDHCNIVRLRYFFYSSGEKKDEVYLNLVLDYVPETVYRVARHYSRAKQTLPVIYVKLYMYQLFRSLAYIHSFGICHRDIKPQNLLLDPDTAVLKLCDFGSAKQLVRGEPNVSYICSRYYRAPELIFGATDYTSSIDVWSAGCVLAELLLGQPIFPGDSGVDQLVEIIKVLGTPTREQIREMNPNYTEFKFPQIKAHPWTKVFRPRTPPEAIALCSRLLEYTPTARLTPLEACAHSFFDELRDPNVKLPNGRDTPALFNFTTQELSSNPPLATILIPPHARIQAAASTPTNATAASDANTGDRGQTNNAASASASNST

| SMILES | EC50 [1] [nM] | EC50 [2, 6] [nM] | EC50 [3] [nM] | EC50 [4] [nM] | EC50 (IL-6) [nM] | EC50 [5] [nM] | EC50 (recombinant GSK3β kinase) [nM] | inhibition at 10 µM [1] [%] | inhibition at 10 µM (IL-6) [%] | inhibition at 10 µM [4] [%] | EC50 ([2]; SH-SY5Y) [nM] |
| --- | --- | --- | --- | --- | --- | --- | --- | --- | --- | --- | --- |
| CC(C)CN1CCC[C@@H](C(=O)Nc2cc3cc(-c4cnn(C)c4)ccc3cn2)C1 [Compound 113, (R)-1-Isobutyl-N-(6-(1-methyl-1H-pyrazol-4-yl)isoquinolin-3-yl)piperidine-3-carboxamide] | 2110 | 3800 | 24.1 | > 10000 | 1920 | > 10000 | 586 | – | – | – | – |
| Cn1cc(-c2ccc3cnc(NC(=O)C4CCOCC4)cc3c2)cn1 [Compound 114, N-(6-(1-Methyl-1H-pyrazol-4-yl)isoquinolin-3-yl)tetrahydro-2H-pyran-4-carboxamide] | 735 | 286 | 1.9 | 3890 | 1140 | 835 | 32 | – | – | – | – |
| Cn1cc(-c2ccc3cnc(NC(=O)CN4CCC(F)CC4)cc3c2)cn1 [Compound 116, 2-(4-Fluoropiperidin-1-yl)-N-(6-(1-methyl-1H-pyrazol-4-yl)isoquinolin-3-yl)acetamide] | 830 | 870 | 4.3 | 6500 | 1330 | 7100 | 24 | – | – | – | – |
| CN1CCN(CC(=O)Nc2cc3cc(-c4cnn(C)c4)ccc3cn2)CC1 [Compound 118, N-(6-(1-Methyl-1H-pyrazol-4-yl)isoquinolin-3-yl)-2-(4-methylpiperazin-1-yl)acetamide] | 821 | 1200 | 9.6 | 5940 | 3610 | 3600 | 79 | – | – | – | – |
| Cc1ncc(-c2ccc3cnc(NC(=O)C4CC4)cc3c2)n1C [Compound 119, N-(6-(1,2-Dimethyl-1H-imidazol-5-yl)isoquinolin-3-yl) cyclopropanecarboxamide] | 1410 | 418 | 2.9 | 525 | 1200 | 1060 | 7 | – | – | – | – |
| Cc1ncc(-c2ccc3cnc(NC(=O)C4CCC(F)(F)CC4)cc3c2)n1C [Compound 121, N-(6-(1,2-Dimethyl-1H-imidazol-5-yl)isoquinolin-3-yl)-4,4-difluorocyclohexanecarboxamide] | 1080 | 1030 | 3.4 | 4310 | 3650 | 3500 | 53 | – | – | – | – |
| Cc1ncc(-c2ccc3cnc(NC(=O)[C@@H]4CCCO4)cc3c2)n1C [Compound 188, (S)—N-(6-(1,2-Dimethyl-1H-imidazol-5-yl)isoquinolin-3-yl)tetrahydrofuran-2-carboxamide] | > 10000 | 4220 | 28.6 | > 10000 | 9980 | > 10000 | 265 | 12.4 | – | – | – |
| CN1CCC(C(=O)Nc2cc3cc(-c4ccn(C)n4)ccc3cn2)CC1 [Compound 264, 1-Methyl-N-(6-(1-methyl-1H-pyrazol-3-yl)isoquinolin-3-yl)piperidine-4-carboxamide] | > 10000 | > 10000 | 348 | 8750 | > 10000 | > 10000 | > 10000 | 11.7 | 4 | – | – |
| O=C(Nc1cc2cc(-c3cnc4n3CCNC4)ccc2cn1)C1CC1 [Compound 265, N-(6-(5,6,7,8-Tetrahydroimidazo[1,2-a]pyrazin-3-yl)isoquinolin-3-yl) cyclopropanecarboxamide] | 2560 | 656 | 3.7 | 4350 | 3000 | 1240 | 7 | – | – | – | – |
| CN1CCn2c(-c3ccc4cnc(NC(=O)C5CC5)cc4c3)cnc2C1 [Compound 266, N-(6-(7-Methyl-5,6,7,8-tetrahydroimidazo[1,2-a]pyrazin-3-yl)isoquinolin-3-yl)cyclopropanecarboxamide] | 697 | 1200 | 17.4 | 6320 | 1930 | 2440 | 38 | – | – | – | – |
| CN1CCn2ncc(-c3ccc4cnc(NC(=O)C5CC(F)(F)C5)cc4c3)c2C1 [Compound 267, 3,3-Difluoro-N-(6-(5-methyl-4,5,6,7-tetrahydropyrazolo[1,5-a]pyrazin-3-yl)isoquinolin-3-yl)cyclobutanecarboxamide] | 590 | 555 | 29.4 | 2020 | 9410 | 1380 | 39 | – | – | – | – |
| Cc1ncc(-c2ccc3cnc(NC(=O)C4CC(F)(F)C4)cc3c2)n1C [Compound 268, N-(6-(1,2-Dimethyl-1H-imidazol-5-yl)isoquinolin-3-yl)-3,3-difluorocyclobutanecarboxamide] | 73 | 478 | 5.8 | 2770 | 8170 | 2070 | 17 | – | – | – | – |
| Cn1nccc1-c1ccc2cnc(NC(=O)C3CCN(CCC(F)(F)F)CC3)cc2c1 [Compound 270, N-(6-(1-Methyl-1H-pyrazol-5-yl)isoquinolin-3-yl)-1-(3,3,3-trifluoropropyl) piperidine-4-carboxamide] | > 10000 | > 10000 | 952 | > 10000 | 9980 | > 10000 | 5310 | 11.4 | – | – | – |
| CC(C)CN1CCN(CC(=O)Nc2cc3cc(-c4cnn(C)c4)ccc3cn2)CC1 [Compound 272, 2-(4-Isobutylpiperazin-1-yl)-N-[6-(1-methylpyrazol-4-yl)-3-isoquinolyl]acetamide] | 2540 | 1660 | 14 | 5870 | 3100 | 3750 | 105 | – | – | – | – |
| Cn1cc(-c2ccc3cnc(NC(=O)CN4CC(C)(C)C4)cc3c2)cn1 [Compound 273, 2-(3,3-Dimethylazetidin-1-yl)-N-[6-(1-methylpyrazol-4-yl)-3-isoquinolyl]acetamide] | 515 | 492 | 10.7 | 1180 | 842 | 1510 | 48 | – | – | – | – |
| Cn1cc(-c2ccc3cnc(NC(=O)CN4CC[C@@H](F)C4)cc3c2)cn1 [Compound 274, 2-[(3R)-3-fluoropyrrolidin-1-yl]-N-[6-(1-methylpyrazol-4-yl)-3-isoquinolyl]acetamide] | 195 | 535 | 5.9 | 4050 | 3220 | 3720 | 25 | – | – | – | – |
| Cn1cncc1-c1ccc2cnc(NC(=O)CN3CCCCC3)cc2c1 [Compound 275, N-[6-(3-methylimidazol-4-yl)-3-isoquinolyl]-2-(1-piperidyl) acetamide] | 431 | 232 | 4.7 | 1280 | 1140 | 1920 | 115 | – | – | – | – |
| Cn1cc(-c2ccc3cnc(NC(=O)CN4CCCCC4)cc3c2)nn1 [Compound 276, N-(6-(1-methyl-1H-1,2,3-triazol-4-yl)isoquinolin-3-yl)-2-(piperidin-1-yl) acetamide] | 336 | 150 | 5.1 | > 10000 | 2920 | 5180 | 6 | – | – | 29.6 | – |
| Cn1cc(-c2ccc3cnc(NC(=O)C4C(C)(C)C4(C)C)cc3c2)nn1 [Compound 277, 2,2,3,3-Tetramethyl-N-(6-(1-methyl-1H-1,2,3-triazol-4-yl)isoquinolin-3-yl) cyclopropane-1-carboxamide] | 245 | – | 2.3 | 1400 | > 10000 | 5260 | 104 | – | 4 | – | 1080 |
| Cc1nnc(-c2ccc3cnc(NC(=O)C4CCN(CCC(F)(F)F)CC4)cc3c2)n1C [Compound 279, N-(6-(4,5-Dimethyl-4H-1,2,4-triazol-3-yl)isoquinolin-3-yl)-1-(3,3,3-trifluoropropyl)piperidine-4-carboxamide] | 1200 | 498 | 7.8 | > 10000 | > 10000 | 5650 | 14 | – | 14.2 | 52.4 | – |
| CC(C)CN1CCC(F)(C(=O)Nc2cc3cc(-c4nncn4C)ccc3cn2)CC1 [Compound 280, 4-Fluoro-1-isobutyl-N-(6-(4-methyl-4H-1,2,4-triazol-3-yl)isoquinolin-3-yl) piperidine-4-carboxamide] | 909 | 677 | 10.8 | 9570 | > 10000 | 2320 | 185 | – | 11.6 | – | – |

From US10287267B2, “Isoquinolin-3-yl carboxamides and preparation and use thereof” (Samumed, LLC, priority 2016, dated 2019)
